Molecular target: T1, glutaminase (GAC) (Homo sapiens, UniProt O94925)
T1 sequence (O94925 55-598 isoform O94925-3 limits assumed): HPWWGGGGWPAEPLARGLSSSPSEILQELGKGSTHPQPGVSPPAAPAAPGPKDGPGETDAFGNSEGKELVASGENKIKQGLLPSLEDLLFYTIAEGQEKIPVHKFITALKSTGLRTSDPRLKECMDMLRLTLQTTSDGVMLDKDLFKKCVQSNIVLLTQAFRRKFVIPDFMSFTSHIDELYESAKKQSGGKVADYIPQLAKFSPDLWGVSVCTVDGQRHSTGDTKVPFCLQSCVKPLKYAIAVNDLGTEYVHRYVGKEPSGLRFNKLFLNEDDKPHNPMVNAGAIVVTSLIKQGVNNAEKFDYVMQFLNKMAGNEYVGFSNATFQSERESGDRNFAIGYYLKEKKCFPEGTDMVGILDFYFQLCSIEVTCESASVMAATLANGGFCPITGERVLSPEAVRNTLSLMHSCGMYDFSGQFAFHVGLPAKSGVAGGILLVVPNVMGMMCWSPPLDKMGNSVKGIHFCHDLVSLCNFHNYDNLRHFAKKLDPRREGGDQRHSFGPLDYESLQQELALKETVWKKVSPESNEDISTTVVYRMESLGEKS
Assay: Glutaminase (GAC) coupled endpoint enzymatic assay (glutamate dehydrogenase/diaphorase/resazurin, Ex544/Em590)
Type: biochemical
Conditions: inhibition of glutaminase, tested in an assay of Example A or Example B; class symbols A-E
Procedure, shortened: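 Compound preincubated 60 min at room temperature with 0.875 μg/ml GAC, 1.56 mM NAD and 6.25 U/ml GDH in HEPES/phosphate buffer pH 8.5; substrate mix then added, giving glutamine at Km. Coupled GDH/diaphorase converts resazurin to resorufin; reaction stopped with SDS and fluorescence read at Ex544/Em590.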

IC50, < 100 nM:
O=C(Cc1cccc(OC(F)(F)F)c1)Nc1nnc([C@H]2CCC[C@H](c3nnc(NC(=O)[C@H](O)c4ccccc4)s3)C2)s1 [Compound 365, (R)-2-hydroxy-2-phenyl-N-(5-((1S,3S)-3-(5-(2-(3-(trifluoromethoxy)phenyl)acetamido)-1,3,4-thiadiazol-2-yl)cyclohexyl)-1,3,4-thiadiazol-2-yl)acetamide]
N#Cc1cccc(CC(=O)Nc2nnc([C@H]3CCC[C@H](c4nnc(NC(=O)Cc5cccc(N6CC(N)C6)n5)s4)C3)s2)c1 [Compound 366, 2-(6-(3-aminoazetidin-1-yl)pyridin-2-yl)-N-(5-((1S,3S)-3-(5-(2-(3-cyanophenyl)acetamido)-1,3,4-thiadiazol-2-yl)cyclohexyl)-1,3,4-thiadiazol-2-yl)acetamide]
N#Cc1cccc(CC(=O)Nc2nnc([C@H]3CCC[C@H](c4nnc(NC(=O)Cc5cccc(C6CCCNC6)c5)s4)C3)s2)c1 (stereo partly drawn) [Compound 367, 2-(3-cyanophenyl)-N-(5-((1S,3S)-3-(5-(2-(3-(piperidin-3-yl)phenyl)acetamido)-1,3,4-thiadiazol-2-yl)cyclohexyl)-1,3,4-thiadiazol-2-yl)acetamide]
CC(=O)N(C)c1ccc(CC(=O)Nc2nnc([C@H]3CCC[C@H](c4nnc(NC(=O)Cc5ccc(N(C)C(C)=O)cn5)s4)C3)s2)nc1 [Compound 368]
O=C(Cc1cccc(N2CC(F)(F)C2)n1)Nc1nnc([C@H]2CCC[C@H](c3nnc(NC(=O)[C@H](O)c4ccccc4)s3)C2)s1 [Compound 369]
O=C(Nc1nnc([C@H]2CCC[C@H](c3nnc(NC(=O)[C@H](O)c4ccccc4)s3)C2)s1)[C@H](O)c1ccccc1 [Compound 370, (2R,2′R)—N,N′-(5,5′-((1S,3S)-cyclohexane-1,3-diyl)bis(1,3,4-thiadiazole-5,2-diyl))bis(2-hydroxy-2-phenylacetamide)]
O=C(Nc1nnc([C@H]2CCC[C@H](c3nnc(NC(=O)[C@@H](O)c4ccccc4)s3)C2)s1)[C@@H](O)c1ccccc1 [Compound 371, (2R,2′S)—N,N′-(5,5′-((1S,3S)-cyclohexane-1,3-diyl)bis(1,3,4-thiadiazole-5,2-diyl))bis(2-hydroxy-2-phenylacetamide)]
O=C(Cc1cccc(OC(F)(F)F)c1)Nc1nnc([C@H]2CCC[C@H](c3nnc(NC(=O)[C@@H](O)c4ccccc4)s3)C2)s1 [Compound 372, (S)-2-hydroxy-2-phenyl-N-(5-((1S,3S)-3-(5-(2-(3-(trifluoromethoxy)phenyl)acetamido)-1,3,4-thiadiazol-2-yl)cyclohexyl)-1,3,4-thiadiazol-2-yl)acetamide]
O=C(Cc1cccc(OC(F)(F)F)c1)Nc1nnc([C@H]2CC[C@H](c3nnc(NC(=O)Cc4cccc(N5CC(F)(F)C5)n4)s3)C2)s1 [Compound 373]
O=C(Cc1cccc(OC(F)(F)F)c1)Nc1nnc([C@H]2CC[C@H](c3nnc(NC(=O)[C@@H](O)c4ccccc4)s3)C2)s1 [Compound 374, (S)-2-hydroxy-2-phenyl-N-(5-((1S,3S)-3-(5-(2-(3-(trifluoromethoxy)phenyl)acetamido)-1,3,4-thiadiazol-2-yl)cyclopentyl)-1,3,4-thiadiazol-2-yl)acetamide]
N#Cc1cccc(CC(=O)Nc2nnc([C@H]3CCC[C@H](c4nnc(NC(=O)Cc5cccc(OC(F)(F)F)c5)s4)C3)s2)n1 [Compound 375, 2-(6-cyanopyridin-2-yl)-N-(5-((1S,3S)-3-(5-(2-(3-(trifluoromethoxy)phenyl)acetamido)-1,3,4-thiadiazol-2-yl)cyclohexyl)-1,3,4-thiadiazol-2-yl)acetamide]
O=C(Cc1ccccn1)Nc1nnc([C@H]2CCC[C@H](c3nnc(NC(=O)[C@@H](O)c4ccccc4)s3)C2)s1 [Compound 376, (S)-2-hydroxy-2-phenyl-N-(5-((1S,3S)-3-(5-(2-(pyridin-2-yl)acetamido)-1,3,4-thiadiazol-2-yl)cyclohexyl)-1,3,4-thiadiazol-2-yl)acetamide]
O=C(Cc1cccc(N2CC(F)(F)C2)n1)Nc1nnc([C@H]2CC[C@H](c3nnc(NC(=O)[C@@H](O)c4ccccc4)s3)C2)s1 [Compound 377, (S)—N-(5-((1S,3S)-3-(5-(2-(6-(3,3-difluoroazetidin-1-yl)pyridin-2-yl)acetamido)-1,3,4-thiadiazol-2-yl)cyclopentyl)-1,3,4-thiadiazol-2-yl)-2-hydroxy-2-phenylacetamide]
O=C(Cc1cccc(N2CC(F)(F)C2)n1)Nc1nnc([C@H]2CC[C@H](c3nnc(NC(=O)[C@H](O)c4ccccc4)s3)C2)s1 [Compound 378, (R)—N-(5-((1S,3S)-3-(5-(2-(6-(3,3-difluoroazetidin-1-yl)pyridin-2-yl)acetamido)-1,3,4-thiadiazol-2-yl)cyclopentyl)-1,3,4-thiadiazol-2-yl)-2-hydroxy-2-phenylacetamide]
O=C(Nc1nnc([C@H]2CC[C@H](c3nnc(NC(=O)[C@@H](O)c4ccccc4)s3)C2)s1)[C@@H](O)c1ccccc1 [Compound 379]
O=C(Nc1nnc([C@H]2CCC[C@H](c3nnc(NC(=O)C(CO)c4ccccc4)s3)C2)s1)C(CO)c1ccccc1 (stereo partly drawn) [Compound 380, N,N′-(5,5′-((1S,3S)-cyclohexane-1,3-diyl)bis(1,3,4-thiadiazole-5,2-diyl))bis(3-hydroxy-2-phenylpropanamide)]
O=C(Cc1cccc(OC(F)(F)F)c1)Nc1nnc([C@H]2CCC[C@H](c3nnc(NC(=O)C(CO)c4ccccc4)s3)C2)s1 (stereo partly shown) [Compound 381]
O=C(Nc1nnc([C@H]2CC[C@H](c3nnc(NC(=O)[C@H](O)c4ccccc4)s3)C2)s1)[C@H](O)c1ccccc1 [Compound 382]
CC(=O)N(C)c1cccc(CC(=O)Nc2nnc([C@H]3CCC[C@H](c4nnc(NC(=O)Cc5cccc(N(C)C(C)=O)n5)s4)C3)s2)n1 [Compound 385, N,N′-(5,5′-((1S,3S)-cyclohexane-1,3-diyl)bis(1,3,4-thiadiazole-5,2-diyl))bis(2-(6-(N-methylacetamido)pyridin-2-yl)acetamide)]
O=C(Cc1cccc(N2CC(F)(F)C2)n1)Nc1nnc([C@H]2CCC[C@H](c3nnc(NC(=O)[C@@H](O)c4ccccc4)s3)C2)s1 [Compound 387, (S)—N-(5-((1S,3S)-3-(5-(2-(6-(3,3-difluoroazetidin-1-yl)pyridin-2-yl)acetamido)-1,3,4-thiadiazol-2-yl)cyclohexyl)-1,3,4-thiadiazol-2-yl)-2-hydroxy-2-phenylacetamide]
O=C(Cc1cccc(OC(F)(F)F)c1)Nc1nnc([C@H]2CCC[C@H](c3nnc(NC(=O)Cc4cccc(N5CC(F)(F)C5)n4)s3)C2)s1 [Compound 388, 2-(6-(3,3-difluoroazetidin-1-yl)pyridin-2-yl)-N-(5-((1S,3S)-3-(5-(2-(3-(trifluoromethoxy)phenyl)acetamido)-1,3,4-thiadiazol-2-yl)cyclohexyl)-1,3,4-thiadiazol-2-yl)acetamide]
O=C(Cc1cccc(OC(F)(F)F)c1)Nc1nnc([C@H]2CCC[C@H](c3nnc(NC(=O)C(CO)c4ccccc4)s3)C2)s1 (stereo partly drawn) [Compound 389, 3-hydroxy-2-phenyl-N-(5-((1S,3S)-3-(5-(2-(3-(trifluoromethoxy)phenyl)acetamido)-1,3,4-thiadiazol-2-yl)cyclohexyl)-1,3,4-thiadiazol-2-yl)propanamide]

Reference: US10087172B2, “Compounds and their methods of use” (AGIOS PHARMACEUTICALS, INC, priority 2012, dated 2018)
